# Measured values published in patent publication US9930890B2 (priority 2010, dated 2018).
# How the values were obtained:
# Plasmopara viticola = test: Plasmopara test (grapevine)/protective; assay type: in vivo; settings: grapevine young plants, protective spray, active ingredient concentration 10 ppm, evaluation 6 days after inoculation; 0% = control, 100% = no infection
# Protocol: Plasmopara Test (Grapevine)/Protective
# To produce an appropriate active ingredient formulation, 1 part by weight of active ingredient is mixed with the specified amounts of solvent and emulsifier, and the concentrate is diluted with water to the desired concentration.
# To test for protective efficacy, young plants are sprayed with the active ingredient formulation at the stated application rate. After the spray coating has dried on, the plants are inoculated with an aqueous spore suspension of Plasmopara viticola and then remain in an incubation cabin at approx. 20° C. and 100% relative air humidity for 1 day. Subsequently, the plants are placed in a greenhouse at approx. 21° C. and approx. 90% air humidity for 4 days. The plants are then moistened and placed in an incubation cabin for 1 day.
# Evaluation follows 6 days after the inoculation. 0% means an efficacy which corresponds to that of the control, whereas an efficacy of 100% means that no infection is observed.
# In this test, the following inventive compounds show, at an active ingredient concentration of 10 ppm, an efficacy of 70% or more: […]
# [1] = for logp [a]: pH 2.7; for logp [b]: pH 7.8
# Phytophthora infestans = assay type: in vivo; settings: tomato plants, protective spray, active ingredient concentration 100 ppm, evaluation 7 days after inoculation; 0% = control, 100% = no infection
compound,measurement,setting,value
N#CCOc1cccc(Cl)c1C1CC(c2csc(C3CCN(C(=O)Cn4nc(C(F)F)cc4C(F)F)CC3)n2)=NO1 (stereo not drawn) [I-75],Eff. %,Plasmopara viticola,100%
same,logp [a],[1],"3.19[a],"
same,logp [b],[1],3.11[b]
O=CNc1ccccc1C1CC(c2csc(C3CCN(C(=O)Cn4nc(C(F)F)cc4C(F)F)CC3)n2)=NO1 (stereo not drawn) [I-108],Eff. %,Phytophthora infestans,100%
same,Eff. %,Plasmopara viticola,93%
same,logp [a],[1],"2.42[a],"
same,logp [b],[1],2.32[b]
CON=C(C)c1ccccc1C1CC(c2csc(C3CCN(C(=O)Cn4nc(C(F)F)cc4C(F)F)CC3)n2)=NO1 (mixture of isomers) [I-32],Eff. %,Phytophthora infestans,100%
same,Eff. %,Plasmopara viticola,85%
O=CNc1ccccc1C1CC(c2csc(C3CCN(C(=O)Cc4cc(C(F)F)ccc4C(F)F)CC3)n2)=NO1 (stereo not drawn) [I-123],Eff. %,Phytophthora infestans,100%
same,Eff. %,Plasmopara viticola,73%
same,logp [a],[1],"2.74[a],"
same,logp [b],[1],2.64[b]
O=C(Oc1ccccc1C1CC(c2csc(C3CCN(C(=O)Cn4nc(C(F)F)cc4C(F)F)CC3)n2)=NO1)c1ccccc1 (stereo not drawn) [I-131],Eff. %,Phytophthora infestans,100%
same,Eff. %,Plasmopara viticola,94%
same,logp [a],[1],"3.69[a],"
same,logp [b],[1],3.65[b]
Cc1ccc(Cl)cc1NC(=O)N1CCC(c2nc(C3=NOC(c4c(Cl)cccc4OS(C)(=O)=O)C3)cs2)CC1 (racemic) [I-54],Eff. %,Phytophthora infestans,94%
same,Eff. %,Plasmopara viticola,100%
same,logp [a],[1],"3.54[a],"
same,logp [b],[1],3.43[b]
CC(=O)OCc1ccccc1C1CC(c2csc(C3CCN(C(=O)Cn4nc(C(F)(F)F)cc4C)CC3)n2)=NO1 (racemic) [I-47],Eff. %,Phytophthora infestans,94%
same,Eff. %,Plasmopara viticola,90%
same,logp [a],[1],3.31[a]
CC(=O)Nc1ccc(C2CC(c3csc(C4CCN(C(=O)Cn5nc(C(F)F)cc5C(F)F)CC4)n3)=NO2)cc1 (racemic) [I-25],Eff. %,Plasmopara viticola,97%
same,logp [a],[1],"2.2[a],"
CON=Cc1cccc(F)c1C1CC(c2csc(C3CCN(C(=O)Cn4nc(C(F)(F)F)cc4C)CC3)n2)=NO1 (mixture of isomers) [I-118],Eff. %,Phytophthora infestans,95%
same,Eff. %,Plasmopara viticola,100%
same,logp [a],[1],"3.61[a],"
same,logp [b],[1],3.49[b]
COC(=O)COc1ccc(C2CC(c3csc(C4CCN(C(=O)Cn5nc(C(F)F)cc5C(F)F)CC4)n3)=NO2)cc1 (stereo not drawn) [I-128],Eff. %,Phytophthora infestans,90%
same,Eff. %,Plasmopara viticola,93%
same,logp [a],[1],"2.89[a],"
same,logp [b],[1],2.87[b]
C#CCOCc1ccccc1C1CC(c2csc(C3CCN(C(=O)Cn4nc(C(F)F)cc4C(F)F)CC3)n2)=NO1 (stereo not drawn) [I-138],Eff. %,Phytophthora infestans,93%
same,Eff. %,Plasmopara viticola,98%
same,logp [a],[1],3.74[a]
Cc1cc(C(F)F)nn1CC(=O)N1CCC(c2nc(C3=NOC(c4ccccc4OCC#N)C3)cs2)CC1 (stereo not drawn) [I-76],Eff. %,Phytophthora infestans,100%
same,Eff. %,Plasmopara viticola,93%
same,logp [a],[1],"2.7[a],"
same,logp [b],[1],2.62[b]
C/C=C/C(=O)Oc1ccccc1C1CC(c2csc(C3CCN(C(=O)Cn4nc(C(F)F)cc4C(F)F)CC3)n2)=NO1 (stereo not drawn) [I-82],Eff. %,Phytophthora infestans,70%
same,Eff. %,Plasmopara viticola,94%
same,logp [a],[1],"3.46[a],"
same,logp [b],[1],3.37[b]
CCON=Cc1ccccc1C1CC(c2csc(C3CCN(C(=O)Cn4nc(C(F)F)cc4C(F)F)CC3)n2)=NO1 (mixture of isomers) [I-27],Eff. %,Phytophthora infestans,100%
same,Eff. %,Plasmopara viticola,99%
CON=C(C)c1ccccc1C1CC(c2csc(C3CCN(C(=O)Cn4nc(C(F)(F)F)cc4C)CC3)n2)=NO1 (mixture of isomers) [I-31],Eff. %,Phytophthora infestans,100%
same,Eff. %,Plasmopara viticola,97%
O=CNc1ccccc1C1CC(c2csc(C3CCN(C(=O)Nc4cc(C(F)F)ccc4C(F)F)CC3)n2)=NO1 (stereo not drawn) [I-122],Eff. %,Phytophthora infestans,97%
same,Eff. %,Plasmopara viticola,89%
same,logp [a],[1],"2.63[a],"
same,logp [b],[1],2.54[b]
CON=Cc1cccc(C2CC(c3csc(C4CCN(C(=O)Cn5nc(C(F)F)cc5C(F)F)CC4)n3)=NO2)c1 (mixture of isomers) [I-16],Eff. %,Plasmopara viticola,94%
CC(=NO)c1cccc(C2CC(c3csc(C4CCN(C(=O)Cn5nc(C(F)F)cc5C(F)F)CC4)n3)=NO2)c1 (mixture of isomers) [I-18],Eff. %,Phytophthora infestans,100%
same,Eff. %,Plasmopara viticola,100%
"CC(=NO)c1ccccc1C1CC(c2csc(C3CCN(C(=O)Cn4nc(C(F)(F)F)cc4C)CC3)n2)=NO1 (stereo not drawn) [I-40, 1-[4-(4-{5-[2-(N-Hydroxyethanimidoyl)phenyl]-4,5-dihydro-1,2-phenyloxazol-3-yl}-1,3-thiazol-2-yl)piperidin-1-yl]-2-[5-methyl-3-(trifluoromethyl)-1H-pyrazol-1-yl]ethanone]",Eff. %,Phytophthora infestans,100%
same,Eff. %,Plasmopara viticola,90%
same,logp [a],[1],2.92[a]
Cc1ccc(Cl)cc1NC(=O)N1CCC(c2nc(C3=NOC(c4cccc(C=NO)c4)C3)cs2)CC1 (mixture of isomers) [I-14],Eff. %,Phytophthora infestans,100%
same,Eff. %,Plasmopara viticola,100%
CON=Cc1cccc(C2CC(c3csc(C4CCN(C(=O)Cn5nc(C(F)(F)F)cc5C)CC4)n3)=NO2)c1 (mixture of isomers) [I-15],Eff. %,Phytophthora infestans,100%
same,Eff. %,Plasmopara viticola,81%
Cc1ccc(Cl)cc1NC(=O)N1CCC(c2nc(C3=NOC(c4ccccc4C=NO)C3)cs2)CC1 (mixture of isomers) [I-36],Eff. %,Phytophthora infestans,100%
same,Eff. %,Plasmopara viticola,100%
CON=Cc1cccc(C2CC(c3csc(C4CCN(C(=O)Nc5cc(Cl)ccc5C)CC4)n3)=NO2)c1 (mixture of isomers) [I-19],Eff. %,Phytophthora infestans,100%
same,Eff. %,Plasmopara viticola,100%
CON=C(C)c1cccc(C2CC(c3csc(C4CCN(C(=O)Nc5cc(Cl)ccc5C)CC4)n3)=NO2)c1 (mixture of isomers) [I-23],Eff. %,Phytophthora infestans,100%
same,Eff. %,Plasmopara viticola,98%
Cc1cc(C(F)(F)F)nn1CC(=O)N1CCC(c2nc(C3=NOC(c4cccc(OS(=O)(=O)C5CC5)c4)C3)cs2)CC1 (stereo not drawn) [I-101],Eff. %,Phytophthora infestans,100%
same,logp [a],[1],"3.25[a],"
same,logp [b],[1],3.12[b]
Cc1cc(C(F)(F)F)nn1CC(=O)N1CCC(c2nc(C3=NOC(c4ccccc4NC=O)C3)cs2)CC1 (stereo not drawn) [I-109],Eff. %,Phytophthora infestans,100%
same,logp [a],[1],"2.49[a],"
same,logp [b],[1],2.39[b]
O=C(Cn1nc(C(F)F)cc1C(F)F)N1CCC(c2nc(C3=NOC(c4cccc(C=NO)c4)C3)cs2)CC1 (mixture of isomers) [I-22],Eff. %,Phytophthora infestans,100%
same,Eff. %,Plasmopara viticola,100%
Cc1cc(C(F)(F)F)nn1CC(=O)N1CCC(c2nc(C3=NOC(c4cccc(C=NO)c4)C3)cs2)CC1 (mixture of isomers) [I-10],Eff. %,Phytophthora infestans,100%
same,Eff. %,Plasmopara viticola,92%
CS(=O)(=O)Oc1ccc(F)c(C2CC(c3csc(C4CCN(C(=O)Cn5nc(C(F)F)cc5C(F)F)CC4)n3)=NO2)c1F (racemic) [I-50],Eff. %,Phytophthora infestans,94%
same,logp [a],[1],"2.95[a],"
same,logp [b],[1],2.88[b]
Cc1ccc(S(=O)(=O)Oc2ccccc2C2(C)CC(c3csc(C4CCN(C(=O)Cn5nc(C(F)F)cc5C)CC4)n3)=NO2)cc1 (racemic) [I-49],Eff. %,Phytophthora infestans,94%
same,logp [a],[1],"4.05[a],"
same,logp [b],[1],3.9[b]
Cc1ccc(S(=O)(=O)Oc2ccccc2C2(C)CC(c3csc(C4CCN(C(=O)Cn5nc(C(F)F)cc5C(F)F)CC4)n3)=NO2)cc1 (racemic) [I-48],Eff. %,Phytophthora infestans,94%
same,logp [a],[1],"4.31[a],"
same,logp [b],[1],4.15[b]
CC1(c2ccccc2OS(C)(=O)=O)CC(c2csc(C3CCN(C(=O)Cn4nc(C(F)F)cc4C(F)F)CC3)n2)=NO1 (racemic) [I-43],Eff. %,Phytophthora infestans,94%
same,logp [a],[1],"3.16[a],"
same,logp [b],[1],3.09[b]
Cc1cc(C(F)F)nn1CC(=O)N1CCC(c2nc(C3=NOC(c4ccccc4OS(C)(=O)=O)C3)cs2)CC1 (racemic) [I-51],Eff. %,Phytophthora infestans,97%
same,logp [a],[1],"2.59[a],"
same,logp [b],[1],2.61[b]
Cc1cc(C(F)(F)F)nn1CC(=O)N1CCC(c2nc(C3=NOC(c4cccc(OCC#N)c4)C3)cs2)CC1 (stereo not drawn) [I-95],Eff. %,Phytophthora infestans,100%
same,logp [a],[1],"3.06[a],"
same,logp [b],[1],2.97[b]
CCNC(=O)Oc1ccccc1C1CC(c2csc(C3CCN(C(=O)Cn4nc(C(F)F)cc4C(F)F)CC3)n2)=NO1 (stereo not drawn) [I-136],Eff. %,Phytophthora infestans,93%
same,logp [a],[1],"2.84[a],"
same,logp [b],[1],2.81[b]
Cc1cc(C(F)(F)F)nn1CC(=O)N1CCC(c2nc(C3=NOC(c4ccc(OS(C)(=O)=O)cc4)C3)cs2)CC1 (stereo not drawn) [I-96],Eff. %,Phytophthora infestans,95%
same,logp [a],[1],"2.9[a],"
same,logp [b],[1],2.81[b]
CCON=C(C)c1cccc(C2CC(c3csc(C4CCN(C(=O)Cn5nc(C(F)F)cc5C(F)F)CC4)n3)=NO2)c1 (mixture of isomers) [I-5],Eff. %,Phytophthora infestans,100%
same,Eff. %,Plasmopara viticola,87%
O=C(Cn1nc(C(F)F)cc1C(F)F)N1CCC(c2nc(C3=NOC(c4ccccc4C=NO)C3)cs2)CC1 (mixture of isomers) [I-35],Eff. %,Phytophthora infestans,95%
same,Eff. %,Plasmopara viticola,100%
C=CC(=O)Oc1ccccc1C1CC(c2csc(C3CCN(C(=O)Cn4nc(C(F)(F)F)cc4C)CC3)n2)=NO1 (stereo not drawn) [I-104],Eff. %,Phytophthora infestans,97%
same,logp [a],[1],"3.38[a],"
same,logp [b],[1],3.3[b]
Cc1cc(C(F)F)nn1CC(=O)N1CCC(c2nc(C3=NOC(C)(c4ccccc4OS(C)(=O)=O)C3)cs2)CC1 (racemic) [I-44],Eff. %,Phytophthora infestans,94%
same,logp [a],[1],"2.86[a],"
same,logp [b],[1],2.8[b]
CON=C(C)c1cccc(C2CC(c3csc(C4CCN(C(=O)Cn5nc(C(F)F)cc5C(F)F)CC4)n3)=NO2)c1 (mixture of isomers) [I-21],Eff. %,Phytophthora infestans,100%
same,Eff. %,Plasmopara viticola,100%
C=CCOCc1ccccc1C1CC(c2csc(C3CCN(C(=O)Cn4nc(C(F)F)cc4C(F)F)CC3)n2)=NO1 (stereo not drawn) [I-139],Eff. %,Phytophthora infestans,80%
same,logp [a],[1],4.11[a]
